The assay concerns JJ5 Breast Cancer cells. The assay is described as follows: Kinetics of binding, internalization and retention of radioactivity in JJ5 breast cancer cells. The format is cell-based, human. The settings on record: 37° C. As to the method:
For the normal breast cell line HBL-100, 8000 EGFR/cell has been reported. The expression of EGFR in breast cancer cell lines has a reported range of 800 EGFR/cell for MCF-7 cells to […] for MDA-MB-468 cells. […] Utilizing the Auger electron emitter ^111In was used in the initial experiments to illustrate the utility of the invention using EGF-^111In-labeled transferrin conjugates. The EGF-^111In-labeled transferrin (0.25-80 ng) was incubated with 1.5×10^6 cells/dish JJ5 Breast Cancer (prepared from BCBM JJ5) cells in 1 mL of 0.1% human serum albumin in 35 mm multiwell culture dishes at 37° C. for 30 minutes. The cells were transferred to a centrifuge tube and centrifuged. The cell pellet was separated from the supernatant and counted in a g-scintillation counter to determine bound (B) and free (F) radioactivity. Non-specific binding was determined by conducting the assay in 100 nM hEGF. The kinetics of binding was determined by incubating 1 ng of EGF-^111In-labeled transferrin conjugate with 3×10^6 JJ5 Breast Cancer cells at 37° C. and determining the proportion of radioactivity bound to the cells at various times up to 24 hours. Internalized fraction was measured by determining the proportion of radioactivity which could not be displaced from the cell surface by 100 nM hEGF. […]

Consider “EGF-^111In-labeled transferrin conjugate: conjugate containing human epidermal growth factor (EGF) linked (biotin/streptavidin linker) to 111In-radiolabeled human transferrin”, for which the “binding by the breast cancer cells (kinetics)” value is given as “rapidly bound”.
